Measured values from patent US8546389B2 (priority 2010, dated 2013).
Like-named read-outs stand apart in the source and are kept apart here.

What was measured:
1b (BK) NS5bΔ21 = 1b (BK) NS5bΔ21 (Hepatitis C virus genotype 1b (isolate BK) (HCV), UniProt P26663); assay: HCV polymerase inhibition assay, genotype 1b; assay type: biochemical, HCV genotype 1b (BK)
Method in brief: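 NS5bΔ21 (50 nM) in Tris-HCl pH 7.5 with Mg2+/Mn2+, DTT, BSA, 0.5% DMSO, poly(rC) template, GTP at Km and ^33P-GTP; 3-fold compound dilutions. GTP-started reactions stopped with EDTA after 1 h; incorporation read by DEAE filter scintillation counting. IC50 by non-linear regression; 3a enzyme run the same way.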

[1] = target: genotype 3a (VRL-69) NS5bΔ21 polymerase (Hepatitis C virus genotype 3a, UniProt Q81258); assay: HCV polymerase inhibition assay, genotype 3a; assay type: biochemical, HCV genotype 3a (VRL-69)
Sequence of genotype 3a (VRL-69) NS5bΔ21 polymerase (Q81258 whole entry, looked up, stated change not applied): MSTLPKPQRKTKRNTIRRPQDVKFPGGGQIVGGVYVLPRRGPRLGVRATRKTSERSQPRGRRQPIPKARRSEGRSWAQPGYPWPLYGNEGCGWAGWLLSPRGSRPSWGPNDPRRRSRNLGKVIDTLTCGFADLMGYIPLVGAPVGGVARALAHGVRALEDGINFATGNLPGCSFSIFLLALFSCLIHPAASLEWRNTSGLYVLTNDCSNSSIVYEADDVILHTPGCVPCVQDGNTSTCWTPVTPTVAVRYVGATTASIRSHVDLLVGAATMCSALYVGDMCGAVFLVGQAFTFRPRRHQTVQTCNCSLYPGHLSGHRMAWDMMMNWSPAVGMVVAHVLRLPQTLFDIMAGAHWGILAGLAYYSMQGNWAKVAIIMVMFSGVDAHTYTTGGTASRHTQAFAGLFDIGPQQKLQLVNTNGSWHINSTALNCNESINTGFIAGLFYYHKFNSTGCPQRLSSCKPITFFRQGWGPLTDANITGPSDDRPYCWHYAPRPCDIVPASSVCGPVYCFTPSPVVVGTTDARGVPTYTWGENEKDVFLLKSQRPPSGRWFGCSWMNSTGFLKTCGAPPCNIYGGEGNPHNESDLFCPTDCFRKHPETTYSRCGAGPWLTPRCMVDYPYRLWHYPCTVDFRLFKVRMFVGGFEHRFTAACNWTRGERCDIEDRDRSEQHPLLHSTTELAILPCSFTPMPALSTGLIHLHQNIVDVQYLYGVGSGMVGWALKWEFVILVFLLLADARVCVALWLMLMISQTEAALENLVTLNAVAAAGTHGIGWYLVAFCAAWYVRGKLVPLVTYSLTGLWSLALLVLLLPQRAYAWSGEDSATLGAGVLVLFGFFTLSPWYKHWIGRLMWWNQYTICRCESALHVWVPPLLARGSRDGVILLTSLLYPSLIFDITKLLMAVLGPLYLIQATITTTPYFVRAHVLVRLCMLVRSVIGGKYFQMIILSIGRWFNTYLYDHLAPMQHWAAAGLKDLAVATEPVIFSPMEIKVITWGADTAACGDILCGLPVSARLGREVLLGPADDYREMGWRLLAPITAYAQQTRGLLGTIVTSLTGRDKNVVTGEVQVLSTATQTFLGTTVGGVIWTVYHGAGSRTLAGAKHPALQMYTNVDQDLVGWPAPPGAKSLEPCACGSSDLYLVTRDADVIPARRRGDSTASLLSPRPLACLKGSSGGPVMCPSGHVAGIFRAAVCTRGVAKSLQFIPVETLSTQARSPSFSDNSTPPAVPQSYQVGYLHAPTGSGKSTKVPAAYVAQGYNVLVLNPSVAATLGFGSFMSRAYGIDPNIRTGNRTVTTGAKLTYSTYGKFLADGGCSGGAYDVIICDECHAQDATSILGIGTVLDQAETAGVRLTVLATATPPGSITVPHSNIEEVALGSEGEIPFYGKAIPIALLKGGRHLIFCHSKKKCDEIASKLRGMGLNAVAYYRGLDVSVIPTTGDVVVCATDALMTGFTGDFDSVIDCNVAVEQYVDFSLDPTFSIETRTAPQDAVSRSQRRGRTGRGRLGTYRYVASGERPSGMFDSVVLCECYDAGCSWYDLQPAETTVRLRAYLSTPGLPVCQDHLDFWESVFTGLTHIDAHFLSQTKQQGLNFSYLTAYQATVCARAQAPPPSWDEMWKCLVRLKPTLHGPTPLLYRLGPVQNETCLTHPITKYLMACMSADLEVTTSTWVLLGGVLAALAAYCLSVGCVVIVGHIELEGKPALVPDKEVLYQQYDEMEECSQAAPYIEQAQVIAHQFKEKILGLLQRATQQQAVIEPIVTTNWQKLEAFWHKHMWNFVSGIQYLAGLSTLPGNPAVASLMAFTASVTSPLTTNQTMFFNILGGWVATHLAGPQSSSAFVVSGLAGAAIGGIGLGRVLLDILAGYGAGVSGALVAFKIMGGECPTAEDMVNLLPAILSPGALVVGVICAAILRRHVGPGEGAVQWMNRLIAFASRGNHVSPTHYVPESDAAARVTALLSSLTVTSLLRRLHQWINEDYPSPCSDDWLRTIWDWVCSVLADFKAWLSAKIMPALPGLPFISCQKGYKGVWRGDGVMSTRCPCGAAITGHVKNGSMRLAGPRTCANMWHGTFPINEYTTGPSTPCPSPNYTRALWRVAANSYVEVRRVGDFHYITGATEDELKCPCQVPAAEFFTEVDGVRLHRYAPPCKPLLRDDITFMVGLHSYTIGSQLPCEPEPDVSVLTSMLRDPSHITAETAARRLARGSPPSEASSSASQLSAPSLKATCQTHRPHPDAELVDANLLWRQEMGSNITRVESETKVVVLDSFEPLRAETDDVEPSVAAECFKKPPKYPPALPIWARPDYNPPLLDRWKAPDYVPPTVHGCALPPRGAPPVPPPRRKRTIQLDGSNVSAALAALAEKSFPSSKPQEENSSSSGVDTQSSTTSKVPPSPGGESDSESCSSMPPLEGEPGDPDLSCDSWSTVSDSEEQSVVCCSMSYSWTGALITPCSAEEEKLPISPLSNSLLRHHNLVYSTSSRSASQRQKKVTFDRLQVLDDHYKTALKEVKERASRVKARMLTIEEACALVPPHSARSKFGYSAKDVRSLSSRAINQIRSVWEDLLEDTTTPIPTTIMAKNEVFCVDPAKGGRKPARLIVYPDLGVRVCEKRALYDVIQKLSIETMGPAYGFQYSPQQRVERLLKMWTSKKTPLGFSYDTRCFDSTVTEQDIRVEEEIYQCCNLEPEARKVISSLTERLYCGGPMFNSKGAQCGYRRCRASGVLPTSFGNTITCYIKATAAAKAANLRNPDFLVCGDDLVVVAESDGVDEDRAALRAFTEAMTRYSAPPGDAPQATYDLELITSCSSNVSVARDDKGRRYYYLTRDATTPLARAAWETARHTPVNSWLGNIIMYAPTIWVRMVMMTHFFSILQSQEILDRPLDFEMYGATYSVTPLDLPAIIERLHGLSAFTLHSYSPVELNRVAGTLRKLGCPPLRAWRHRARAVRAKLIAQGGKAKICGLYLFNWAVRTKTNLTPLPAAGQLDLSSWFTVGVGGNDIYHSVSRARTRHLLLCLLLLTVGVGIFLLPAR
Protocol: HCV polymerase reactions were carried out using a modified method of Howe et al., Antimicrobial Agents and Chemotherapy 2004 48(12): 4813-4821. Reactions contained a final concentration of, 0.5% DMSO, 50 nM, 1b (BK) NS5bΔ21, 20 mM Tris-HCl pH 7.5, 5 mM MgCl2, 5 mM MnCl2, 3 mM DTT, 0.05% BSA, 0.2 U/μL RNasin, 10 μg/mL Poly(rC) template, GTP (at Km) and 0.05 μCi/μL ^33P-GTP in a total reaction volume of 50 μL. Compounds were tested in a three fold dilution series, for example starting from 50 μM. Reactions were initiated with the addition of GTP and terminated after 1 hour with 50 μL ice cold 0.2 M EDTA. Terminated reactions were transferred to DEAE 96-well filter plates, unincorporated nucleotides washed from the filters and 50 μL scintillation fluid added prior to reading on a scintillation counter. Similarly, a genotype 3a (VRL-69) NS5bΔ21 polymerase enzyme assay was conducted using essentially the same method.
The compound concentration that reduced ^33P-GTP incorporation by 50% (IC50) was calculated using non-linear regression.

[2] = test system: genotype 1b (Con 1) subgenomic replicon cell line; assay: HCV replicon assay, genotype 1b (Renilla luciferase); assay type: cell-based, HCV genotype 1b (Con 1); settings: genotype 1b replicon
Method in brief: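 Subgenomic replicon cells expressing Renilla luciferase (1b Con1; 1a and 2a lines by the same method) seeded at 7000 cells/well (5000 for 2a) without G418, exposed to 3-fold compound dilutions for 72 h at 37 °C. Luciferase activity measured; EC50 by non-linear regression.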

[3] = test system: subgenomic genotype 1a replicon cell line; assay: HCV replicon assay, genotype 1a; assay type: cell-based, HCV genotype 1a
Protocol: (§1) A genotype 1b (Con 1) subgenomic replicon cell line based on Blight et al., Science 2000 290: 1972-1974, modified to express a Renilla luciferase reporter gene was used to assess antiviral activity of test compounds. Cell cultures were maintained in a sub-confluent state in DMEM with glutamine, 10% heat-inactivated foetal bovine serum (FBS) and G418 (Geneticin®).
(§2) For assay, cells were seeded at a density of 7000 cells/well into 96 well tissue culture trays in culture media lacking G418. Compounds were tested in a three fold dilution series, for example starting from 50 uM. After 72 hours incubation at 37° C. and 5% CO2, Renilla luciferase activity was quantified via the Promega Renilla Luciferase or Renilla-Glo™ Luciferase Assay Systems (Promega corporation. The same method was employed for replicon assays using subgenomic genotype 1a and 2a replicon cell lines with a seeding cell density of 5000 cells/well for the 2a cell lines.
(§3) The compound concentration that reduced luciferase activity by 50% (EC50) was calculated using non-linear regression.

[4] = test system: subgenomic genotype 2a replicon cell line; assay: HCV replicon assay, genotype 2a; assay type: cell-based, HCV genotype 2a
Protocol: as §1, §2, §3

[5] = 1b (BK) NS5bΔ21, 33P-GTP incorporation, read-out: 1b polymerase IC50 (range class)
[6] = genotype 1b, read-out: 1b NS5b polymerase IC50
[7] = genotype 3a, read-out: 3a NS5b polymerase IC50
[8] = Hepatitis C virus, 72 hours, luciferase, read-out: genotype 1b EC50 (range class)
[9] = Hepatitis C virus, read-out: Replicon 1b EC50

Sequence of 1b (BK) NS5bΔ21 (P26663 2420-2989): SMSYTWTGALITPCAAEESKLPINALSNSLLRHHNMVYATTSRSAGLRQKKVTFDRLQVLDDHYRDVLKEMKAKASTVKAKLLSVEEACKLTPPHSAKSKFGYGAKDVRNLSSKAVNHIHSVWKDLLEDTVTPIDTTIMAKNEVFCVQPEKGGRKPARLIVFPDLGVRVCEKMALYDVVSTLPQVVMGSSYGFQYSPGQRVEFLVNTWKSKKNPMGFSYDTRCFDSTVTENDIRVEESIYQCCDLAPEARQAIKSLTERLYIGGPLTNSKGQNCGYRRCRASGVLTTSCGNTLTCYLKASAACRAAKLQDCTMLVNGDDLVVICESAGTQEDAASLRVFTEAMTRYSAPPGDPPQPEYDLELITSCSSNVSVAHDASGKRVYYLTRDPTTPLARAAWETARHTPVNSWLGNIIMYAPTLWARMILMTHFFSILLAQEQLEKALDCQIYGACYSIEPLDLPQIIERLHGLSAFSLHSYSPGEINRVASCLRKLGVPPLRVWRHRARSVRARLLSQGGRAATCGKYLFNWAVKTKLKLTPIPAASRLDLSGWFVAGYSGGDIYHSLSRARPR

SMILES: CNC(=O)c1c2cc(C3CC3)c(N(CCCNC(C)=O)S(C)(=O)=O)cc2nn1-c1ccc(Br)cc1 [Compound 59, 6-{[3-(Acetylamino)propyl](methylsulfonyl)amino}-2-(4-bromophenyl)-5-cyclopropyl-N-methyl-2H-indazole-3-carboxamide]
- IC50 (1b (BK) NS5bΔ21; [5]): < 990 nM
- IC50 (1b (BK) NS5bΔ21; [6]): 260 nM
- IC50 [1, 7]: 50 nM
- EC50 [2, 8]: < 990 nM
- EC50 [2, 9]: 670 nM
- EC50 ([3]; Hepatitis C virus): 300 nM
- EC50 ([4]; Hepatitis C virus): 1430 nM

SMILES: CCCC(=O)NCCCN(c1cc2nn(-c3ccc(Br)cc3)c(C(=O)NC)c2cc1C1CC1)S(C)(=O)=O [Compound 171]
- IC50 (1b (BK) NS5bΔ21; [5]): < 990 nM
- IC50 (1b (BK) NS5bΔ21; [6]): 310 nM
- IC50 [1, 7]: 40 nM
- EC50 [2, 8]: < 990 nM
- EC50 [2, 9]: 210 nM
- EC50 ([3]; Hepatitis C virus): 280 nM
- EC50 ([4]; Hepatitis C virus): 4260 nM

SMILES: CNC(=O)c1c2cc(C3CC3)c(N(CCCO)S(C)(=O)=O)cc2nn1-c1ccc(Nc2ccc(F)cc2)cc1 [Compound 21]
- IC50 (1b (BK) NS5bΔ21; [5]): < 990 nM
- IC50 (1b (BK) NS5bΔ21; [6]): 40 nM
- IC50 [1, 7]: 40 nM
- EC50 [2, 8]: < 990 nM
- EC50 [2, 9]: 460 nM
- EC50 ([3]; Hepatitis C virus): 290 nM
- EC50 ([4]; Hepatitis C virus): 340 nM

SMILES: CNC(=O)c1c2cc(C3CC3)c(N(C)S(C)(=O)=O)cc2nn1-c1ccc(Br)cc1 [Compound 234]
- IC50 (1b (BK) NS5bΔ21; [5]): < 990 nM
- IC50 (1b (BK) NS5bΔ21; [6]): 140 nM
- IC50 [1, 7]: 20 nM
- EC50 [2, 8]: < 990 nM
- EC50 [2, 9]: 80 nM
- EC50 ([3]; Hepatitis C virus): 240 nM
- EC50 ([4]; Hepatitis C virus): 420 nM

SMILES: CNC(=O)c1c2cc(C3CC3)c(N(CCCNC(C)=O)S(C)(=O)=O)cc2nn1-c1ccc(Nc2ccc(F)cc2)cc1 [Compound 119]
- IC50 (1b (BK) NS5bΔ21; [5]): < 990 nM
- IC50 (1b (BK) NS5bΔ21; [6]): 130 nM
- IC50 [1, 7]: 30 nM
- EC50 [2, 8]: < 990 nM
- EC50 [2, 9]: 240 nM
- EC50 ([3]; Hepatitis C virus): 1200 nM
- EC50 ([4]; Hepatitis C virus): 2700 nM

SMILES: CNC(=O)c1c2cc(C3CC3)c(N(CCC3COC(C)(C)OC3)S(C)(=O)=O)cc2nn1-c1ccc(Br)cc1 [Compound 95]
- IC50 (1b (BK) NS5bΔ21; [6]): 70 nM
- IC50 [1, 7]: 40 nM
- EC50 ([2]; read-out: Replicon 1b EC50): 50 nM
- EC50 [3]: 70 nM
- EC50 [4]: 180 nM

SMILES: CNC(=O)c1c2cc(C3CC3)c(N(CCCNC(=O)c3ccoc3)S(C)(=O)=O)cc2nn1-c1ccc(Br)cc1 [Compound 160]
- IC50 (1b (BK) NS5bΔ21; [5]): < 990 nM
- IC50 (1b (BK) NS5bΔ21; [6]): 70 nM
- IC50 [1, 7]: 40 nM
- EC50 [2, 8]: < 990 nM
- EC50 [2, 9]: 90 nM
- EC50 ([3]; Hepatitis C virus): 340 nM
- EC50 ([4]; Hepatitis C virus): 780 nM

SMILES: CNC(=O)c1c2cc(C3CC3)c(N(CCCNC(=O)c3cccnc3OC)S(C)(=O)=O)cc2nn1-c1ccc(Br)cc1 [Compound 190]
- IC50 (1b (BK) NS5bΔ21; [5]): < 990 nM
- IC50 (1b (BK) NS5bΔ21; [6]): 830 nM
- IC50 [1, 7]: 40 nM
- EC50 [2, 8]: < 990 nM
- EC50 [2, 9]: 70 nM
- EC50 ([3]; Hepatitis C virus): 90 nM
- EC50 ([4]; Hepatitis C virus): 430 nM

SMILES: CNC(=O)c1c2cc(C3CC3)c(N(CCCNC(=O)c3nonc3C)S(C)(=O)=O)cc2nn1-c1ccc(Br)cc1 [Compound 179]
- IC50 (1b (BK) NS5bΔ21; [5]): < 990 nM
- IC50 (1b (BK) NS5bΔ21; [6]): 260 nM
- IC50 [1, 7]: 30 nM
- EC50 [2, 8]: < 990 nM
- EC50 [2, 9]: 70 nM
- EC50 ([3]; Hepatitis C virus): 180 nM
- EC50 ([4]; Hepatitis C virus): 520 nM

SMILES: CCN(c1cc2nn(-c3ccc(NCC(C)C)cc3)c(C(=O)NC)c2cc1C1CC1)S(C)(=O)=O [Compound 117]
- IC50 (1b (BK) NS5bΔ21; [5]): < 990 nM
- IC50 (1b (BK) NS5bΔ21; [6]): 430 nM
- IC50 [1, 7]: 70 nM
- EC50 [2, 8]: < 990 nM
- EC50 [2, 9]: 70 nM
- EC50 ([3]; Hepatitis C virus): 340 nM
- EC50 ([4]; Hepatitis C virus): 150 nM

SMILES: CNC(=O)c1c2cc(C3CC3)c(N(CCCN3CCOCC3)S(C)(=O)=O)cc2nn1-c1ccc(Br)cc1 [Compound 200]
- IC50 (1b (BK) NS5bΔ21; [5]): < 990 nM
- IC50 (1b (BK) NS5bΔ21; [6]): 220 nM
- IC50 [1, 7]: 40 nM
- EC50 [2, 8]: < 990 nM
- EC50 [2, 9]: 170 nM
- EC50 ([3]; Hepatitis C virus): 650 nM
- EC50 ([4]; Hepatitis C virus): 1050 nM

SMILES: CCN(c1cc2nn(-c3ccc(Nc4ccc(F)cc4)cc3)c(C(=O)NC)c2cc1C1CC1)S(C)(=O)=O [Compound 22]
- IC50 (1b (BK) NS5bΔ21; [5]): < 990 nM
- IC50 (1b (BK) NS5bΔ21; [6]): 110 nM
- IC50 [1, 7]: 20 nM
- EC50 [2, 8]: < 990 nM
- EC50 [2, 9]: 70 nM
- EC50 ([3]; Hepatitis C virus): 380 nM
- EC50 ([4]; Hepatitis C virus): 340 nM

SMILES: CCOC(=O)CCC(=O)NCCCN(c1cc2nn(-c3ccc(Br)cc3)c(C(=O)NC)c2cc1C1CC1)S(C)(=O)=O [Compound 164]
- IC50 (1b (BK) NS5bΔ21; [5]): < 990 nM
- IC50 (1b (BK) NS5bΔ21; [6]): 520 nM
- IC50 [1, 7]: 40 nM
- EC50 [2, 8]: < 990 nM
- EC50 [2, 9]: 210 nM
- EC50 ([3]; Hepatitis C virus): 10 nM
- EC50 ([4]; Hepatitis C virus): 620 nM

SMILES: CNC(=O)c1c2cc(C3CC3)c(N(CCCNC(=O)CCC(=O)OC)S(C)(=O)=O)cc2nn1-c1ccc(Br)cc1 [Compound 66, Methyl 4-[(3-{[2-(4-bromophenyl)-5-cyclopropyl-3-(methylcarbamoyl)-2H-indazol-6-yl](methylsulfonyl)amino}propyl)amino]-4-oxobutanoate]
- IC50 (1b (BK) NS5bΔ21; [5]): < 990 nM
- IC50 (1b (BK) NS5bΔ21; [6]): 320 nM
- IC50 [1]: 80 nM
- EC50 [2, 8]: < 990 nM
- EC50 [2, 9]: 120 nM
- EC50 ([3]; Hepatitis C virus): 20 nM
- EC50 ([4]; Hepatitis C virus): 360 nM

SMILES: CNC(=O)c1c2cc(C3CC3)c(N(CCCO)S(C)(=O)=O)cc2nn1-c1ccc(Nc2ccccc2F)cc1 [Compound 5, 5-cyclopropyl-2-{4-[(2-fluorophenyl)amino]phenyl}-6-[(3-hydroxypropyl)(methylsulfonyl)amino]-N-methyl-2H-indazole-3-carboxamide]
- IC50 (1b (BK) NS5bΔ21; [5]): < 990 nM
- IC50 (1b (BK) NS5bΔ21; [6]): 70 nM
- IC50 [1, 7]: 40 nM
- EC50 [2, 8]: < 990 nM
- EC50 [2, 9]: 130 nM
- EC50 ([3]; Hepatitis C virus): 50 nM
- EC50 ([4]; Hepatitis C virus): 320 nM

SMILES: CCOC(=O)CCN(c1cc2nn(-c3ccc(Br)cc3)c(C(=O)NC)c2cc1C1CC1)S(C)(=O)=O [Compound 131]
- IC50 (1b (BK) NS5bΔ21; [5]): < 990 nM
- IC50 (1b (BK) NS5bΔ21; [6]): 370 nM
- IC50 [1]: 470 nM
- EC50 [2, 8]: < 990 nM
- EC50 [2, 9]: 140 nM
- EC50 ([3]; Hepatitis C virus): 450 nM
- EC50 ([4]; Hepatitis C virus): 3790 nM

SMILES: CNC(=O)c1c2cc(C3CC3)c(N(CCCNC(=O)c3cccnc3)S(C)(=O)=O)cc2nn1-c1ccc(Br)cc1 [Compound 191]
- IC50 (1b (BK) NS5bΔ21; [5]): < 990 nM
- IC50 (1b (BK) NS5bΔ21; [6]): 430 nM
- IC50 [1, 7]: 20 nM
- EC50 [2, 8]: < 990 nM
- EC50 [2, 9]: 190 nM
- EC50 ([3]; Hepatitis C virus): 400 nM
- EC50 ([4]; Hepatitis C virus): 2590 nM

SMILES: CNC(=O)c1c2cc(C3CC3)c(N(CCN3CCOCC3)S(C)(=O)=O)cc2nn1-c1ccc(Oc2ccc(F)cc2)cc1 [Compound 112]
- IC50 (1b (BK) NS5bΔ21; [5]): < 990 nM
- IC50 (1b (BK) NS5bΔ21; [6]): 410 nM
- IC50 [1, 7]: 40 nM
- EC50 [2, 8]: < 990 nM
- EC50 [2, 9]: 130 nM
- EC50 ([3]; Hepatitis C virus): 1900 nM
- EC50 ([4]; Hepatitis C virus): 2730 nM
